From US20240376084A1, “INHIBITORS OF ALPHA-HEMOLYSIN OF STAPHYLOCOCCUS AUREUS” (Helmholtz-Zentrum Fur Infektionsforschung GmbH, priority 2021, published 2024) come the findings set out here.

The target in assay [1] is S. aureus Alpha hemolysin (Staphylococcus aureus, UniProt P09616). Briefly: cell-based. The conditions noted are these: A549-LDH Assay activity.
Assay [2] deals with hemolysin alpha from Staphylococcus aureus (Staphylococcus aureus, UniProt P09616). Briefly: cell-based.

Bounds are passed on as bounds.

Chain of hemolysin alpha from Staphylococcus aureus (P09616 27-319 limits assumed): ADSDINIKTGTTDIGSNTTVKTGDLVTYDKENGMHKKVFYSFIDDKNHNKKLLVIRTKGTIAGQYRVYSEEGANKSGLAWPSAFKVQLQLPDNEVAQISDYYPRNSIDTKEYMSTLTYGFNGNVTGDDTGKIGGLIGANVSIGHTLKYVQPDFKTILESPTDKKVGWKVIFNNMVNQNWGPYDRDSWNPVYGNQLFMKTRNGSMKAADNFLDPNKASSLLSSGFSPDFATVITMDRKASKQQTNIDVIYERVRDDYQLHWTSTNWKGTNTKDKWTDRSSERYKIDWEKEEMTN
Chain of S. aureus Alpha hemolysin (P09616 27-319 limits assumed): as above

On to `Cc1cc2[nH]c(=O)c(=O)[nH]c2cc1S(=O)(=O)Nc1cc(Cl)c(-c2ccc(F)c(Cl)c2)cn1` [Compound 211, N-(4-chloro-5-(3-chloro-4-fluorophenyl)pyridin-2-yl)-7-methyl-2,3-dioxo-1,2,3,4-tetrahydroquinoxaline-6-sulfonamide], for which the EC50 in assay [1] and in assay [2] was 0.1 to 1 µM each time.
`Cc1cc2[nH]c(=O)c(=O)[nH]c2cc1S(=O)(=O)Nc1ccc(-c2ccc3c(c2)OCCN3C)c(Cl)c1` [Compound 329, N-[3-chloro-4-(4-methyl-2,3-dihydro-1,4-benzoxazin-7-yl)phenyl]-7-methyl-2,3-dioxo-1,4-dihydroquinoxaline-6-sulfonamide]: the EC50 (in general, the midpoint of the concentration-response curve) lay in the range of 1 to 6 µM in assay [1] and 0.1 to 1 µM in assay [2].
On the same counts, the results for `Cc1cc2ccc(-c3ccc(NS(=O)(=O)c4cc5[nH]c(=O)c(=O)[nH]c5cc4C)cc3Cl)cc2[nH]1` [Compound 349, N-[3-chloro-4-(2-methyl-1H-indol-6-yl)phenyl]-7-methyl-2,3-dioxo-1,4-dihydroquinoxaline-6-sulfonamide] are < 0.03 µM and < 0.03 µM.
On the same counts, the results for `C#Cc1cc(NS(=O)(=O)c2cc3[nH]c(=O)c(=O)[nH]c3cc2C)ccc1-c1ccc(F)cc1` [Compound 378, N-[3-ethynyl-4-(4-fluorophenyl)phenyl]-7-methyl-2,3-dioxo-1,4-dihydroquinoxaline-6-sulfonamide] are < 0.03 µM and < 0.03 µM.
Take `Cc1cc2[nH]c(=O)c(=O)[nH]c2cc1S(=O)(=O)Nc1ccc(C(F)(F)F)c(Cl)c1` [Compound 56, N-(3-chloro-4-(trifluoromethyl)phenyl)-7-methyl-2,3-dioxo-1,2,3,4-tetrahydroquinoxaline-6-sulfonamide]: the EC50 in assay [1] was 1 to 6 µM. Moreover, the IC50 (commonly the midpoint of a concentration-inhibition curve) in assay [2] was 0.03 to 0.1 µM.
As for `Cc1cc2[nH]c(=O)c(=O)[nH]c2cc1S(=O)(=O)Nc1ccc(-c2ccc(=O)[nH]c2)c(Cl)c1` [Compound 358, N-[3-chloro-4-(6-oxo-1H-pyridin-3-yl)phenyl]-7-methyl-2,3-dioxo-1,4-dihydroquinoxaline-6-sulfonamide], the EC50 in assay [1] was 0.03 to 0.1 µM; in assay [2], 0.1 to 1 µM.
`Cc1cc(NS(=O)(=O)c2cc3[nH]c(=O)c(=O)[nH]c3cc2C)ccc1C(F)(F)F` [Compound 91, 7-methyl-N-(3-methyl-4-(trifluoromethyl)phenyl)-2,3-dioxo-1,2,3,4-tetrahydroquinoxaline-6-sulfonamide] displayed an EC50 in assay [1] of 0.1 to 1 µM. Besides, the IC50 in assay [2] fell in the range of 0.1 to 1 µM.
In assay [1], `Cc1cc2[nH]c(=O)c(=O)[nH]c2cc1S(=O)(=O)Nc1ccc(-c2cccc(Cl)c2)c(Cl)c1` [Compound 26, N-(2,3′-dichloro-[1,1′-biphenyl]-4-yl)-7-methyl-2,3-dioxo-1,2,3,4-tetrahydroquinoxaline-6-sulfonamide] registered an EC50 of 0.03 to 0.1 µM. For the same compound, the IC50 in assay [2] was < 0.03 µM.
For `O=c1[nH]c2cc(F)c(S(=O)(=O)Nc3ccc(OC(F)(F)F)cc3)cc2[nH]c1=O` [Compound 147, 7-fluoro-2,3-dioxo-N-(4-(trifluoromethoxy)phenyl)-1,2,3,4-tetrahydroquinoxaline-6-sulfonamide] the same measures were 0.1 to 1 µM and 0.1 to 1 µM.
Take `Cc1cc2[nH]c(=O)c(=O)[nH]c2cc1S(=O)(=O)Nc1ccc(-c2ccc3cc[nH]c3c2)c(Br)c1` [Compound 374, N-[3-bromo-4-(1H-indol-6-yl)phenyl]-7-methyl-2,3-dioxo-1,4-dihydroquinoxaline-6-sulfonamide]: the EC50 in assay [1] and in assay [2] was < 0.03 µM each time.
Regarding `Cc1cc2[nH]c(=O)c(=O)[nH]c2cc1S(=O)(=O)Nc1ccc(-c2cc(F)cc(C(N)=O)c2)c(Cl)c1` [Compound 390, 3-[2-chloro-4-[(7-methyl-2,3-dioxo-1,4-dihydroquinoxalin-6-yl)sulfonylamino]phenyl]-5-fluoro-benzamide], the EC50 in assay [1] and in assay [2] was < 0.03 µM each time.
As to `Cc1cc2[nH]c(=O)c(=O)[nH]c2cc1S(=O)(=O)Nc1ccc(-c2ccc3c(c2)NC(=O)C3)c(Cl)c1` [Compound 350, N-[3-chloro-4-(2-oxoindolin-6-yl)phenyl]-7-methyl-2,3-dioxo-1,4-dihydroquinoxaline-6-sulfonamide], the EC50 in assay [1] and in assay [2] was 0.03 to 0.1 µM throughout.
Turning to `O=c1[nH]c2cc(Br)c(S(=O)(=O)Nc3ccc(OC(F)(F)F)cc3)cc2[nH]c1=O` [Compound 15, 7-bromo-2,3-dioxo-N-(4-(trifluoromethoxy)phenyl)-1,2,3,4-tetrahydroquinoxaline-6-sulfonamide], the EC50 in assay [1] was in the range of 0.03 to 0.1 µM. Moreover, the IC50 in assay [2] is < 0.03 µM.
On to `Cc1cc2[nH]c(=O)c(=O)[nH]c2cc1S(=O)(=O)Nc1ccc(C2CCCCC2)c(Br)c1` [Compound 306, N-(3-bromo-4-cyclohexylphenyl)-7-methyl-2,3-dioxo-1,2,3,4-tetrahydroquinoxaline-6-sulfonamide], for which the EC50 in assay [1] lay within 0.1 to 1 µM; in assay [2], 0.03 to 0.1 µM.
For `Cc1cc2[nH]c(=O)c(=O)[nH]c2cc1S(=O)(=O)Nc1ccc(-c2ccc(F)cc2)c(OC(F)(F)F)c1` [Compound 327, N-[4-(4-fluorophenyl)-3-(trifluoromethoxy)phenyl]-7-methyl-2,3-dioxo-1,4-dihydroquinoxaline-6-sulfonamide] the same measures were 0.1 to 1 µM and 0.1 to 1 µM.
For the compound `CC(=O)Nc1cc(-c2ccc(NS(=O)(=O)c3cc4[nH]c(=O)c(=O)[nH]c4cc3C)cc2C(F)(F)F)ccc1O` [Compound 346, N-[2-hydroxy-5-[4-[(7-methyl-2,3-dioxo-1,4-dihydroquinoxalin-6-yl)sulfonylamino]-2-(trifluoromethyl)phenyl]phenyl]acetamide], the EC50 in assay [1] fell in the range of 0.1 to 1 µM; in assay [2], 0.03 to 0.1 µM.
In assay [1], `Cc1cc2[nH]c(=O)c(=O)[nH]c2cc1S(=O)(=O)Nc1ccc(N2CCOCC2)c(Br)c1` [Compound 128, N-(3-bromo-4-morpholinophenyl)-7-methyl-2,3-dioxo-1,2,3,4-tetrahydroquinoxaline-6-sulfonamide] registered an EC50 of 0.1 to 1 µM. In assay [2], this compound gave an IC50 of 0.1 to 1 µM.
Consider `Cc1ccc(-c2ccc(NS(=O)(=O)c3cc4[nH]c(=O)c(=O)[nH]c4cc3C)cc2Cl)cc1Cl` [Compound 286, N-[3-chloro-4-(3-chloro-4-methyl-phenyl)phenyl]-7-methyl-2,3-dioxo-1,4-dihydroquinoxaline-6-sulfonamide], for which the EC50 lay within 0.1 to 1 µM in assay [1] and 0.03 to 0.1 µM in assay [2].
In turn, `Cc1cc(-c2ccc(NS(=O)(=O)c3cc4[nH]c(=O)c(=O)[nH]c4cc3C)cc2Cl)ccn1` [Compound 140, N-(3-chloro-4-(2-methylpyridin-4-yl)phenyl)-7-methyl-2,3-dioxo-1,2,3,4-tetrahydroquinoxaline-6-sulfonamide] came in with an EC50 in assay [1] of 0.1 to 1 µM. Further, the IC50 in assay [2] is 0.1 to 1 µM.
`Cc1cc2[nH]c(=O)c(=O)[nH]c2cc1S(=O)(=O)Nc1ccc(-c2ccc3c(c2)CCCN3)c(Cl)c1` [Compound 343, N-[3-chloro-4-(1,2,3,4-tetrahydroquinolin-6-yl)phenyl]-7-methyl-2,3-dioxo-1,4-dihydroquinoxaline-6-sulfonamide]: the figures for the EC50 in assay [1] and in assay [2] were 0.1 to 1 µM and < 0.03 µM, respectively.
Regarding `Cc1cc2[nH]c(=O)c(=O)[nH]c2cc1S(=O)(=O)Nc1ccc(-c2ccc3nn[nH]c3c2)c(Cl)c1` [Compound 256, N-[4-(1H-benzotriazol-5-yl)-3-chloro-phenyl]-7-methyl-2,3-dioxo-1,4-dihydroquinoxaline-6-sulfonamide], the concentration giving a half-maximal response (EC50) is 0.03 to 0.1 µM in assay [1] and < 0.03 µM in assay [2].
Compound `O=c1[nH]c2cc(F)c(S(=O)(=O)Nc3ccc(-c4ccccc4F)c(Cl)c3)cc2[nH]c1=O` [Compound 36, N-(2-chloro-2′-fluoro-[1,1′-biphenyl]-4-yl)-7-fluoro-2,3-dioxo-1,2,3,4-tetrahydroquinoxaline-6-sulfonamide] registered an EC50 in assay [1] of 0.1 to 1 µM. In addition, the IC50 in assay [2] was < 0.03 µM.
As for `Cc1cc2[nH]c(=O)c(=O)[nH]c2cc1S(=O)(=O)Nc1ccc(-c2ccc(C(N)=O)cc2)c(Cl)c1` [Compound 314, 4-[2-chloro-4-[(7-methyl-2,3-dioxo-1,4-dihydroquinoxalin-6-yl)sulfonylamino]phenyl]benzamide], the EC50 in assay [1] and in assay [2] was 0.1 to 1 µM in each case.
For the compound `Cc1cc2[nH]c(=O)c(=O)[nH]c2cc1S(=O)(=O)Nc1ccc(-c2ccc(S(C)(=O)=O)cc2F)c(Cl)c1` [Compound 262, N-[3-chloro-4-(2-fluoro-4-methylsulfonyl-phenyl)phenyl]-7-methyl-2,3-dioxo-1,4-dihydroquinoxaline-6-sulfonamide], the EC50 in assay [1] was 1 to 6 µM; in assay [2] it was 1 to 3.5 µM.
As for `Cc1cc2[nH]c(=O)c(=O)[nH]c2cc1S(=O)(=O)Nc1ccc(-c2ccc(OC(F)(F)F)cc2)c(Cl)c1` [Compound 277, N-[3-chloro-4-[4-(trifluoromethoxy)phenyl]phenyl]-7-methyl-2,3-dioxo-1,4-dihydroquinoxaline-6-sulfonamide], the EC50 in assay [1] and in assay [2] was 0.1 to 1 µM in each case.
Turning to `Cc1cc2[nH]c(=O)c(=O)[nH]c2cc1S(=O)(=O)Nc1ccc(-c2ccoc2)c(Cl)c1` [Compound 22, N-(3-chloro-4-(furan-3-yl)phenyl)-7-methyl-2,3-dioxo-1,2,3,4-tetrahydroquinoxaline-6-sulfonamide], in assay [1], the EC50 lay in the range of 0.1 to 1 µM. For the same compound, in assay [2], the IC50 is < 0.03 µM.
Regarding `Cc1cc2[nH]c(=O)c(=O)[nH]c2cc1S(=O)(=O)Nc1ccc(-c2ccc(OC3CC3)cc2)c(Cl)c1` [Compound 268, N-[3-chloro-4-[4-(cyclopropoxy)phenyl]phenyl]-7-methyl-2,3-dioxo-1,4-dihydroquinoxaline-6-sulfonamide], the EC50 in assay [1] lay in the range of 0.1 to 1 µM; in assay [2], 0.03 to 0.1 µM.
For the compound `O=c1[nH]c2cc(F)c(S(=O)(=O)Nc3ccc(-c4ccc(F)cc4)c(Cl)c3)cc2[nH]c1=O` [Compound 18, N-(2-chloro-4′-fluoro-[1,1′-biphenyl]-4-yl)-7-fluoro-2,3-dioxo-1,2,3,4-tetrahydroquinoxaline-6-sulfonamide], in assay [1], the EC50 is 0.03 to 0.1 µM. Also, the IC50 in assay [2] is < 0.03 µM.
